Data published in US7205295B2, “Benzoxazin-3-ones and derivatives thereof as therapeutic agents” (Warner-Lambert Company LLC, priority 2002, dated 2007).

Each compound was assayed against T1, PI3Kγ (p101/p110γ protein) (Homo sapiens, UniProt P48736) (assay: PI3Kγ In Vitro Kinase Assay). Settings: purified recombinant p101/p110γ with G protein β1/γ2 subunits; 20 μM ATP, 25 μM PIP2; 20 minutes at room temperature.
T1 construct: HA; made in house; host or cells: Spodoptera frugiperda (Sf9) cells, baculovirus co-infection
T1 sequence (P48736 whole entry, species assumed): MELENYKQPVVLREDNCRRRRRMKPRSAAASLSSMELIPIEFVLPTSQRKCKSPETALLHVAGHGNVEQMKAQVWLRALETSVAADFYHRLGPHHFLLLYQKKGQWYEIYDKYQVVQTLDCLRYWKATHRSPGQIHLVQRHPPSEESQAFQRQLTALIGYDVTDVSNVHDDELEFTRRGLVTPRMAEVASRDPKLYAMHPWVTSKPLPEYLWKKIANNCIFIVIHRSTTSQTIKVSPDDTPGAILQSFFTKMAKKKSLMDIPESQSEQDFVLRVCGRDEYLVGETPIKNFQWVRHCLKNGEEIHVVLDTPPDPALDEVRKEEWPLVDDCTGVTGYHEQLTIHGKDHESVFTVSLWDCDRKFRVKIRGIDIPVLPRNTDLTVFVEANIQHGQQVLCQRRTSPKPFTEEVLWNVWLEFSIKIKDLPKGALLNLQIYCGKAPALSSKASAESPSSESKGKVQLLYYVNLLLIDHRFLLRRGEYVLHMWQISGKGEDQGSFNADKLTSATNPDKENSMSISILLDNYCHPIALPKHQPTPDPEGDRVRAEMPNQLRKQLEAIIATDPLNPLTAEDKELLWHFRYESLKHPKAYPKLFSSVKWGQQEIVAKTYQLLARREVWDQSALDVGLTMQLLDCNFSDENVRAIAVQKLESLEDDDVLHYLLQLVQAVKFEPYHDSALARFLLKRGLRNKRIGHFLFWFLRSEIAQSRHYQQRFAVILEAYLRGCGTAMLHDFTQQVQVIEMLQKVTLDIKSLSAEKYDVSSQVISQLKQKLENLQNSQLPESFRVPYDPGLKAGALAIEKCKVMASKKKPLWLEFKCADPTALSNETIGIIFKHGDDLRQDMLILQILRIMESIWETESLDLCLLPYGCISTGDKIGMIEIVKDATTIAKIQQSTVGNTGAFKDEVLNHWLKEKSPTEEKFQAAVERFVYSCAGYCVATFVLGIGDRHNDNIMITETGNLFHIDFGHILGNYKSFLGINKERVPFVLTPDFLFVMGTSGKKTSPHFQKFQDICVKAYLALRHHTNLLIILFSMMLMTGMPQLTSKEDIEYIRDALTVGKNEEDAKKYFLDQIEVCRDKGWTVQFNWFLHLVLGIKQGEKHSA
T1 sequence (Q8WYR1 whole entry partner, species assumed): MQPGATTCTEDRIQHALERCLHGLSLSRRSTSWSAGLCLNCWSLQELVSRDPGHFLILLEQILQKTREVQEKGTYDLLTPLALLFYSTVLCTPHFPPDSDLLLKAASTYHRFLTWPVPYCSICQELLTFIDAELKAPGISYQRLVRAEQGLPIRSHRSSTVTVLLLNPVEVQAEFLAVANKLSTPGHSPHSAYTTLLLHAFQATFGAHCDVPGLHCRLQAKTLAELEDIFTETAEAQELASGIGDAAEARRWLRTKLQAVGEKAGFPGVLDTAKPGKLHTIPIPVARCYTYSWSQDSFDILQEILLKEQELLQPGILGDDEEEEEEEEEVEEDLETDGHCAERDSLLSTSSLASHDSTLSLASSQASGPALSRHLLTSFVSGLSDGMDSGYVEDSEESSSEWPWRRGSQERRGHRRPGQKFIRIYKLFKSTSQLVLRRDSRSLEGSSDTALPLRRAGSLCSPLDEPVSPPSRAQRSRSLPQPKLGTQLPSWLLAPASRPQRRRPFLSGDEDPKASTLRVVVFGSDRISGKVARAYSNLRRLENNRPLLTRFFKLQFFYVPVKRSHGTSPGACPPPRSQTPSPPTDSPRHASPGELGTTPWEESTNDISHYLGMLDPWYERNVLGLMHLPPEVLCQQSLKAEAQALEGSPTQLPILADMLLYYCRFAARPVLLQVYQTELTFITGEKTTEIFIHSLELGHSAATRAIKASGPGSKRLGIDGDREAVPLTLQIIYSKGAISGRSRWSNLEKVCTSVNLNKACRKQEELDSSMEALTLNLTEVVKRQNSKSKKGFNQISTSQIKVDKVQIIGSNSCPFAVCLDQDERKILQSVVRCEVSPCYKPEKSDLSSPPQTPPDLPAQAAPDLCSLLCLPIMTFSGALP
Assay type: biochemical
Procedure: Spodtera frugiperda cells, grown in ESF921 media, were coinfected with baculovirus expressing a glu-tagged p101 and baculovirus expressing an HA-tagged p110γ, at a 3:1 ratio of p101 baculovirus to p110γ baculovirus. Sf9 cells were grown to 1×10^7 total cells/mL in 10L bioreactors and harvested 48-72 hours post infection. Samples of infected cells were then tested for expression of p101/p110γ PI3 kinase by immunoprecipitation and Western Blot analysis methods (see below). […] NaCl was added to 150 mM, and sodium cholate was added to 1% and mixed for another 45 minutes. The lysates were clarified by centrifugation for 25 minutes at 14,000 rpm. The lysates were then loaded over anti-glu-linked Protein-G Sepaharose beads (Covance Research Products, Richmond, Calif.) using 20 mL resin/50 g cell paste. […] PI3Kγ was eluted with 6 column volumes of wash buffer that contain 100 μg/mL of a peptide that competes for binding of the glu tag. […] The fractions were stored at -80° C. until further use. Spodtera frugiperda cells were coinfected with baculovirus expressing a glu-tagged G protein β1 and baculovirus expressing a G protein […] at a 1:1 ratio of glu-tagged G protein β1 baculovirus to G protein β2 baculovirus. Sf9 cells are grown in 10 L bioreactors and harvested 48-72 hours post infection. Samples of infected cells were tested for G protein β1/β2 expression by Western Blot analysis, as described below. Cell lysates were homogenized and loaded onto a column of glu-tagged beads as in Biological Example 1 and competed off the column with a glu peptide as described in Biological Example 1. The inhibitory properties of the compounds in Table 1 were assayed in an in vitro PI3K assay. In a 96-well polypropylene plate, each well was spotted with 2 μL of […] the desired final concentration of compound in DMSO. Purified recombinant p101/p110γ protein (0.03 μg; 2.7 nM) and G protein β1/γ2 subunits (0.09 μg; 57.7 nM) for each reaction was combined in the assay buffer (30 mM HEPES, 100 mM NaCl, 1 mM EGTA, and 1 mM DTT). ATP and [γ-^32P-ATP] (0.09 μCi) were added to this mixture so that the final ATP concentration in the reaction was 20 μM. Lipid micelles were formed by sonicating phosphatidylinositol-4,5-diphosphate (PIP2), phosphatidylethanolamine (PE), and Na-cholate in the assay buffer for 10 minutes, adding MgCL2 and incubating on ice for 20 minutes, for final concentrations of 25 μM PIP2, 300 [M PE, 0.02% Na-cholate, and 10 mM MgCl2 in the reaction. The reactions were started by adding equal volumes lipid and enzyme mixture in a total volume of 50 μL, allowed to run for 20 minutes at room temperature, and stopped with 100 μL 75 mM H3PO4. The lipid product was transferred to a glass fiber filter plate and washed with 75 mM H3PO4 several times. The presence of radioactive lipid product (PIP3) was measured by adding Wallac Optiphase mix to each well and counting in a Wallac 1450 Trilux plate reader (PerkinElmer Life Sciences Inc., Boston, Mass. 02118).

IC50 [nM]	Compound
2	4-(3-Chloro-4-fluoro-benzyl)-8-fluoro-6-(4-oxo-2-thioxo-thiazolidin-5-ylidenemethyl)-4H-benzo[1,4]oxazin-3-one [Example 309]
42	4-Ethyl-6-(4-oxo-2-thioxo-thiazolidin-5-ylidenemethyl)-4H-benzo[1,4]oxazin-3-one [Example 139]
55	8-Fluoro-4-(3-morpholin-4-yl-propyl)-6-(4-oxo-2-thioxo-thiazolidin-5-ylidenemethyl)-4H-benzo[1,4]oxazin-3-one [Example 242]
45	CN1C(=O)COc2ccc(C=C3SC(=S)NC3=O)cc21 [Example 2, 4-Methyl-6-(4-oxo-2-thioxo-thiazolidin-5-ylidenemethyl)-4H-1,4-benzoxazin-3-one]
81	COC(=O)c1cccc(CN2C(=O)COc3ccc(C=C4SC(=S)NC4=O)cc32)c1 [Example 8, 3-[3-Oxo-6-(4-oxo-2-thioxo-thiazolidin-5-ylidenemethyl)-2,3-dihydro-1,4-benzoxazin-4-ylmethyl]-benzoic acid methyl ester]
61	O=C1NC(=S)SC1=Cc1ccc2c(c1)N(Cc1ccc(-c3ccccc3)cc1)C(=O)CO2 [Example 9, 4-Biphenyl-4-ylmethyl-6-(4-oxo-2-thioxo-thiazolidin-5-ylidenemethyl)-4H-1,4-benzoxazin-3-one]
9	O=C1NC(=S)SC1=Cc1ccc2c(c1)N(Cc1cccc(C(=O)O)c1)C(=O)CO2 [Example 17, 3-[3-Oxo-6-(4-oxo-2-thioxo-thiazolidin-5-ylidenemethyl)-2,3-dihydro-1,4-benzoxazin-4-ylmethyl]-benzoic acid]
8	O=C1NC(=S)SC1=Cc1ccc2c(c1)N(Cc1ccc(CN3CCCCC3)cc1)C(=O)CO2 [Example 19, 4-(4-Piperidin-1-ylmethyl-benzyl)-6-(4-oxo-2-thioxo-thiazolidin-5-ylidenemethyl)-4H-1,4-benzoxazin-3-one]
3	O=C1NC(=S)SC1=Cc1ccc2c(c1)N(Cc1ccc(CN3CCOCC3)cc1)C(=O)CO2 [Example 20, 4-(4-Morpholin-4-ylmethyl-benzyl)-6-(4-oxo-2-thioxo-thiazolidin-5-ylidenemethyl)-4H-1,4-benzoxazin-3-one]

More lines, now with the values behind:

Compound	IC50 [nM]
4-Methyl-6-(4-oxo-2-thioxo-oxazolidin-5-ylidenemethyl)-4a,8a-dihydro-4H-benzo[1,4]oxazin-3-one, Potassium Salt [Example 204]	16
5-{4-[3-(4-Methoxy-phenyl)-propyl]-3-oxo-3,4-dihydro-2H-benzo[1,4]oxazin-6-ylmethylene}-thiazolidine-2,4-dione [Example 125]	18
O=C1COc2ccc(C=C3SC(=S)NC3=O)cc2N1 [Example 1, 6-(4-Oxo-2-thioxo-thiazolidin-5-ylidenemethyl)-4H-1,4-benzoxazin-3-one]	78
O=C(O)CN1C(=O)COc2ccc(C=C3SC(=S)NC3=O)cc21 [Example 3, [3-Oxo-6-(4-oxo-2-thioxo-thiazolidin-5-ylidenemethyl)-2,3-dihydro-1,4-benzoxazin-4-yl]-acetic acid]	635
O=C1NC(=S)SC1=Cc1ccc2c(c1)N(Cc1ccccc1)C(=O)CO2 [Example 4, 4-Benzyl-6-(4-oxo-2-thioxo-thiazolidin-5-ylidenemethyl)-4H-1,4-benzoxazin-3-one]	23
O=C1NC(=S)SC1=Cc1ccc2c(c1)N(CCc1ccccc1)C(=O)CO2 [Example 5, 6-(4-Oxo-2-thioxo-thiazolidin-5-ylidenemethyl)-4-phenethyl-4H-1,4-benzoxazin-3-one]	25
COc1cc(C=C2SC(=S)NC2=O)cc2c1OCC(=O)N2 [Example 6, 8-Methoxy-6-(4-oxo-2-thioxo-thiazolidin-5-ylidenemethyl)-4H-1,4-benzoxazin-3-one]	560
COC(=O)CN1C(=O)COc2ccc(C=C3SC(=S)NC3=O)cc21 [Example 7, [3-Oxo-6-(4-oxo-2-thioxo-thiazolidin-5-ylidenemethyl)-2,3-dihydro-1,4-benzoxazin-4-yl]-acetic acid methyl ester]	84
O=C(O)CN1C(=O)C(=Cc2ccc3c(c2)NC(=O)CO3)SC1=S [Example 10, [4-Oxo-5-(3-oxo-3,4-dihydro-2H-1,4-benzoxazin-6-ylmethylene)-2-thioxo-thiazolidin-3-yl]-acetic acid; compound with trifluoro-acetic acid]	3630
O=C1NC(=S)SC1=Cc1ccc2c(c1)N(Cc1ccc3ccccc3c1)C(=O)CO2 [Example 11, 4-Naphthalen-2-ylmethyl-6-(4-oxo-2-thioxo-thiazolidin-5-ylidenemethyl)-4H-1,4-benzoxazin-3-one]	61
O=C1NC(=S)SC1=Cc1ccc2c(c1)N(Cc1cccnc1)C(=O)CO2 [Example 12, 6-(4-Oxo-2-thioxo-thiazolidin-5-ylidenemethyl)-4-pyridin-3-ylmethyl-4H-1,4-benzoxazin-3-one]	27
C[C@@H]1Oc2ccc(C=C3SC(=S)NC3=O)cc2NC1=O [Example 13, (S)-2-Methyl-6-(4-oxo-2-thioxo-thiazolidin-5-ylidenemethyl)-4H-1,4-benzoxazin-3-one]	745
Cc1cc(C)cc(CN2C(=O)COc3ccc(C=C4SC(=S)NC4=O)cc32)c1 [Example 14, 4-(3,5-Dimethyl-benzyl)-6-(4-oxo-2-thioxo-thiazolidin-5-ylidenemethyl)-4H-1,4-benzoxazin-3-one]	5
O=C1NC(=S)SC1=Cc1ccc2c(c1)N(Cc1cccc(OCc3ccccc3)c1)C(=O)CO2 [Example 15, 4-(3-Benzyloxy-benzyl)-6-(4-oxo-2-thioxo-thiazolidin-5-ylidenemethyl)-4H-1,4-benzoxazin-3-one]	13
Cc1cc(C=C2SC(=S)NC2=O)c(C)c2c1OCC(=O)N2 [Example 16, 5,8-Dimethyl-6-(4-oxo-2-thioxo-thiazolidin-5-ylidenemethyl)-4H-benzo[1,4]oxazin-3-one]	328
C[C@@H]1Oc2ccc(C=C3SC(=S)NC3=O)cc2N(Cc2ccccc2)C1=O [Example 18, (S)-4-Benzyl-2-methyl-6-(4-oxo-2-thioxo-thiazolidin-5-ylidenemethyl)-4H-1,4-benzoxazin-3-one]	319
CCN(CC)Cc1ccc(CN2C(=O)COc3ccc(C=C4SC(=S)NC4=O)cc32)cc1 [Example 21, 4-(4-Diethylaminomethyl-benzyl)-6-(4-oxo-2-thioxo-thiazolidin-5-ylidenemethyl)-4H-1,4-benzoxazin-3-one]	14
CC(=O)OCc1ccccc1CN1C(=O)COc2ccc(C=C3SC(=S)NC3=O)cc21 [Example 22, Acetic acid 2-[3-oxo-6-(4-oxo-2-thioxo-thiazolidin-5-ylidenemethyl)-2,3-dihydro-1,4-benzoxazin-4-ylmethyl]-benzyl ester]	17
O=C1NC(=S)SC1=Cc1ccc2c(c1)N(Cc1ccc(OCc3ccccc3)cc1)C(=O)CO2 [Example 23, 4-(4-Benzyloxy-benzyl)-6-(4-oxo-2-thioxo-thiazolidin-5-ylidenemethyl)-4H-1,4-benzoxazin-3-one]	5
O=C1NC(=S)SC1=Cc1ccc2c(c1)N(Cc1ccccc1CO)C(=O)CO2 [Example 24, 4-(2-Hydroxymethyl-benzyl)-6-(4-oxo-2-thioxo-thiazolidin-5-ylidenemethyl)-4H-1,4-benzoxazin-3-one]	3
O=C1NC(=S)SC1=Cc1ccc2c(c1)N(Cc1ccc(Oc3cccc4ccccc34)cc1)C(=O)CO2 [Example 25, 4-[4-(Naphthalen-1-yloxy)-benzyl]-6-(4-oxo-2-thioxo-thiazolidin-5-ylidenemethyl)-4H-1,4-benzoxazin-3-one]	8
COc1cc(CN2C(=O)COc3ccc(C=C4SC(=S)NC4=O)cc32)cc(OC)c1 [Example 26, 4-(3,5-Dimethoxy-benzyl)-6-(4-oxo-2-thioxo-thiazolidin-5-ylidenemethyl)-4H-1,4-benzoxazin-3-one]	9
